pIC50: −log10 of the molar value.
Experiments:
Assay type in all cases: cell-based, Influenza A virus (A/Puerto Rico/8/1934(H1N1))
[1] = (§1) Inhibition of Influenza A virus (A/PR 8/34 (H1N1)) hemagglutinin HA1 chain 1324T mutant transfected in human HeLa cells assessed as reduction in low pH-indued polykaryon formation preincubated for 15 mins followed by pH 5.2 buffer addition and measured after 5 mins by giemsa staining based microscopic analysis
[2] = as §1, with “S326V” for “1324T”
[3] = as §1, with “HA2” for “HA1”, “L99F” for “1324T”

COC(=O)C[C@H](NC(=O)OC(C)(C)C)C(=O)N(Cc1ccc(F)cc1)C1(C(=O)NCc2ccccc2)CCN(Cc2ccccc2)CC1
pIC50 [1]: 5.49 | pIC50 [2]: < 4.00 | pIC50 [3]: < 4.00

Reference: ChEMBL document CHEMBL4680243, “N-benzyl 4,4-disubstituted piperidines as a potent class of influenza H1N1 virus inhibitors showing a novel mechanism of hemagglutinin fusion peptide interaction” (Eur J Med Chem, 2020)
